Measured values reported in patent US20120245078A1, “MEANS AND METHODS FOR TREATING ISCHEMIC CONDITIONS” (priority 2009, published 2012).

Columns and labels:
[1] = test system: focal cerebral ischemia (tMCAO); details: mice, 24 h after 60 min tMCAO; same doses; untreated control 48.3±16.7 or 56.6±10.0
Method: The intraluminal suture was left in situ for 60 minutes. Then animals were re-anesthetized and the occluding monofilament was withdrawn to allow reperfusion. […] Control mice (n=10) received 0.9% NaCl solution.
Control mice (n=10) received 0.9% NaCl solution.

[2] = test system: traumatic brain injury (CCI); assay: Controlled cortical impact (CCI) traumatic brain injury model; assay type: in vivo, mouse; details: mice, 24 h after CCI; given 30 min after CCI; bortezomib 0.2 mg/kg, dexamethasone 10 mg/kg; scale 0 to 10
Method: As is known in the art, the neurological severity score is a measure of neurological impairment and is quantified on a scale from 0 (no impairment) to 10 (maximum impairment). When determining the neurological severity score, primarily the motoric activity is assessed (walking on a bar, false steps, search or foraging, respectively, behaviour and the like).

[3] = test system: occludin protein; assay: Western blot and densitometry, occludin protein in cEND cells; assay type: cell-based, mouse; details: for occludin protein, of control: GR-K426A-transfected cEND cells, after O2/glucose deprivation
Method: (C)-(D) The influence of O2/glucose-deprivation on the tight junction proteins occludin and claudin-5 could be shown by Western Blot: for this, cells were seeded on plastic cell culture flasks coated with collagen IV, treated as indicated and subjected to SDS-gel electrophoresis and Western blotting. A four-hour exposure to O2/glucose-deprivation caused a significant (P<0.05) decrease in occludin protein to 82±3% as compared to the untreated control. […]. Comparably, O2/glucose-deprivation caused a significant (P<0.001) decrease in claudin-5 protein to 61±4% as compared to the untreated control. […]. (C) Effects of proteasomal inhibition on occludin protein levels were examined by western blot analysis and densitometric analysis.

[4] = test system: claudin-5 protein; assay: Western blot and densitometry, claudin-5 protein in cEND cells; assay type: cell-based, mouse; details: GR-K426A-transfected cEND cells, O2/glucose deprivation, presence of dexamethasone (K426A O2/glu depr+dex)
Method: (C)-(D) The influence of O2/glucose-deprivation on the tight junction proteins occludin and claudin-5 could be shown by Western Blot: for this, cells were seeded on plastic cell culture flasks coated with collagen IV, treated as indicated and subjected to SDS-gel electrophoresis and Western blotting. A four-hour exposure to O2/glucose-deprivation caused a significant (P<0.05) decrease in occludin protein to 82±3% as compared to the untreated control. […]. Comparably, O2/glucose-deprivation caused a significant (P<0.001) decrease in claudin-5 protein to 61±4% as compared to the untreated control. […].

[5] = test system: GR protein; assay: Western blot and densitometry, GR protein levels in cEND cells; assay type: cell-based, mouse; details: normoxia, 100 nM dexamethasone 24 h (normox+dex)
Method: (A) GR protein levels after O2/glucose-deprivation.
(§1) Electrophoresis and immunoblotting, quantitative real-time RT-PCR, transendothelial electrical resistance measurements, transfection and luciferase assay were performed following standard procedures.

[6] = test system: cEND monolayers; assay: Transendothelial electrical resistance (TER) of cEND monolayers, normoxia or O2/glucose deprivation; assay type: cell-based, mouse; details: GR-K426A-transfected cEND cells, after O2/glucose deprivation, without dexamethasone (K426A O2/glu depr)
Method: Growth medium (10% FCS) was changed after 5 days in culture to differentiation medium ([…], ±additions) and analysis of the TER was performed after O2/glucose-deprivation as indicated. […] Hek293 cells were maintained in DMEM, 10% FCS. […] We performed cell viability assays following standard procedures.
as §1

[7] = test system: claudin-5; assay: Real time RT-PCR, claudin-5 gene expression in cEND cells; assay type: cell-based, mouse; details: introduction of GR-K426A
Method: (§2) Normox control (black bars), normox+dex (white bars), O2/glu depr (light grey bars), O2/glu depr+dex (dark grey bars).
as §1
(§3) At first, expression levels of genes encoding the tight junction proteins occludin, claudins-3, -5, -12 and the adherens junction protein, VE-cadherin, were assessed by real time RT-PCR (FIG. 2B).

[8] = test system: VE-cadherin; assay: Real time RT-PCR, VE-cadherin gene expression in cEND cells; assay type: cell-based, mouse; details: introduction of GR-K426A
Method: as §2, §1, §3

CC(C)C[C@@H](NC(=O)[C@@H](Cc1ccccc1)NC(=O)c1cnccn1)B(O)O [bortezomib, [(1S)-3-methyl-1-[[(2R)-3-phenyl-2-(pyrazine-2-carbonylamino)propanoyl]amino]butyl]boronic acid]
volume of Evan's blue extravasation (edema volume) [1]: no influence | neurological severity score [2]: does not lead to any statistically significant improvement

C[C@@H]1C[C@H]2[C@@H]3CCC4=CC(=O)C=C[C@]4(C)[C@@]3(F)[C@@H](O)C[C@]2(C)[C@@]1(O)C(=O)CO [dexamethasone]
occludin protein, of control ([3]; dexamethasone (K426A O2/glu depr+dex)): 122±5% | occludin protein content, of control ([3]; normoxia, dexamethasone): 120±7% | claudin-5 protein level [4]: 44±11% | GR protein, of untreated cells [5]: 66±2%

B1: GR-K426A: mutant murine glucocorticoid receptor, point mutation at lysine-426, resistant to proteasomal degradation, transfected into cEND cells (SEQ ID NOs: 3 and 4) (protein)
chain: MDSKESLAPPGRDEVPSSLLGRGRGSVMDLYKTLRGGATVKVSASSPSVAAASQADSKQQRILLDFSKGSASNAQQQQQQQQPQPDLSKAVSLSMGLYMGETETKVMGNDLGYPQQGQLGLSSGETDFRLLEESIANLNRSTSRPENPKSSTPAAGCATPTEKEFPQTHSDPSSEQQNRKSQPGTNGGSVKLYTTDQSTFDILQDLEFSAGSPGKETNESPWRSDLLIDENLLSPLAGEDDPFLLEGDVNEDCKPLILPDTKPKIQDTGDTILSSPSSVALPQVKTEKDDFIELCTPGVIKQEKLGPVYCQASFSGTNIIGNKMSAISVHGVSTSGGQMYHYDMNTASLSQQQDQKPVFNVIPPIPVGSENWNRCQGSGEDNLTSLGAMNFAGRSVFSNGYSSPGMRPDVSSPPSSSSTATGPPPALCLVCSDEASVCHYGVLTCGSCKVFFKRAVEGQHNYLCAGRNDCIIDKIRRKNCPACRYRKCLQAGMNLEARKTKKKIKGIQQATAGVSQDTSENANKTIVPAALPQLTPTLVSLLEVIEPEVLYAGYDSSVPDSAWRIMTTLNMLGGRQVIAAVKWAKAIPGFRNLHLDDQMTLLQYSWMFLMAFALGWRSYRQASGNLLCFAPDLIINEQRMTLPCMYDQCKHMLFISTELQRLQVSYEEYLCMKTLLLLSSVPKEGLKSQELFDEIRMTYIKELGKAIVKREGNSSQNWQRFYQLTKLLDSMHDVVENLLSYCFQTFLDKSMSIEFPEMLAEIITNQIPKYSNGNIKKLLFHQK
modifications: expressed in transfected cEND cells; mus musculus
TER [6]: 239+58 Ωcm^2 | claudin-5 gene expression level [7]: not influenced | VE-cadherin gene expression level [8]: not influenced | occludin protein, of control ([3]; without dexamethasone (K426A O2/glu depr)): 58±7%
